{
  "source": "patent US20230107216A1",
  "about": "“PANTETHEINE DERIVATIVES AND USES THEREOF” (Comet Therapeutics, Inc., priority 2018, published 2023)",
  "key": {"[1]": {"tested_on": "Venular Endothelial cells (HUVEC) (3C system)", "test": "BioMAP 3C system (IL-1β, TNFα, IFNγ)", "type": "cell-based, human", "details": "10 uM; procedure of Example 825", "protocol": "The BioMAP platform (BioMAP® Diversity PLUS® Panel from Eurofins) is an in vitro phenotypic profiling technology that screened the compounds of the present disclosure (hereafter indicated as test agents) in human primary cell-based systems modelling complex tissue and disease states. The BioMAP assays were performed using the Eurofin's BioMAP Technology Platform as (see references 1 to 13 in the example 824 section) to model different diseases on primary cell-based model systems. These systems consisted of either single primary cell types or co-culture cells. Adherent cell types were cultured or co-cultured in 96 or 384-well plates until confluence followed by the addition of compounds prepared in DMSO at a final concentration of ≤0.1%. In each cell-based system, primary cells from heathy donors (2-6 donors) were pooled and treated with compounds at 1 and 10 μM dose 1h prior to stimulation and remain in culture as indicated in Example 825, Example 826, Example 827, Example 828, Example 829, Example 830, Example 831, Example 832, Example 833, Example 834, Example 835, Example 836 and Example 837. For on the BioMAP® Diversity PLUS® Panel, please see the following references, which are incorporate herein.\nFollowing the general procedure as described in Example 824, Venular Endothelial cells (HUVEC) (3C system) were treated with IL-1β, TNFα, IFNγ for 24h to model Th1 driven cardiovascular and chronic inflammation diseases in the presence or absence of the compounds. Biomarker read out were; Tissue Factor, ICAM-1, E-selectin, uPAR (CD87), IL-8, MIG, HLA-DR, proliferation and SRB (Sulfo-rhodamine i.e. staining for protein content)."}, "[2]": {"tested_on": "HepG2 cells", "test": "MitoBiogenesis In-Cell ELISA (COX-I, SDH-A)", "type": "cell-based", "details": "Homo sapiens, 168 h, 7 days, read-out: % increase in Mitochondrial Biogenesis", "in_short": "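HepG2 cells were plated, adhered overnight at 37 °C/5% CO2, then exposed to test compounds (50–10 μM) in DMEM with 10% FBS for 7 days without media change; vehicle was 0.2% DMSO. COX-I and SDH-A were measured by in-cell ELISA and reported as signal relative to vehicle, n=2.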"}, "[3]": {"tested_on": "Pkd1−/− mouse inner medullary collecting duct cells (mIMRFNPKD 5E4)", "test": "mPKD 3D cyst swelling assay (forskolin-induced)", "type": "cell-based", "details": "after 72 hours of forskolin exposure", "protocol": "Cell model and control compounds. mIMCD3 WT cells were obtained via ATCC and modified to create the mIMRFNPKD 5E4 cell line, which has a CRISPR-Cas mediated knockout for Pkd1 as described SLAS Discov. 2017 September; 22(8):974-984. doi: 10.1177/2472555217716056. Cells were cultured in DMEM/F12 (Sigma)+10% FBS (Sigma)+0.5% Pen/Strep (Gibco)+1% GluMax (Gibco). Control compounds used were forskolin (Calbiochem, 344282), Rapamycin (Selleckchem, S1039) and Staurosporin (Selleckchem, S1421).\nThe 3D mouse cyst swelling assay was performed with Pkd1^−/− mouse inner medullary collecting duct cells (mIMRFNPKD 5E4). The cyst swelling protocol that was used was described previously (SLAS Discov. 2017 September; 22(8):974-984. doi: 10.1177/2472555217716056), with further optimization.\n3D culture and compound exposure. mIMRFNPKD 5E4 cells were mixed with Cyst-Gel (OcellO BV). 15 μL of cell-gel mix was pipetted to 384-well plates (Greiner μClear, Greiner Bio-One B.V.) using a CyBio Felix 96/60 robotic liquid dispenser (Analyik Jena AG). Gel-cell mix was plated at a final cell density of 2250 cells per well. After gel polymerization at 37° C. for 30 minutes, 33 μL culture medium was added to each well. Cells were grown in the gel for 96 hours, after which the cells were co-exposed with forskolin (Calbiochem, 344282) and one the following molecules: reference compound Rapamycin (SelleckChem, S1039), toxic control compound Staurosporin (SelleckChem, S1421) or test compounds.\nSample processing. After 72 hours, cultures were fixed with 4% Formaldehyde (Sigma Aldrich) and simultaneously permeabilized with 0.2% Triton-X100 (Sigma Aldrich) and stained with 0.25 μM rhodamine-phalloidin (Sigma Aldrich) and 0.1% Hoechst 33258 (Sigma Aldrich) in 1×PBS (Sigma Aldrich) for 2 days at 4° C., protected from light. After fixation and staining, plates were washed with 1×PBS, sealed with a Greiner SilverSeal (Greiner Bio-One B.V.) and stored at 4° C. prior to imaging.\nImaging and image analysis. Imaging was done using Molecular Devices ImageXpress Micro XLS (Molecular Devices) with a 4× NIKON objective. For each well around 35 images in the Z-direction were made for both channels, capturing the whole z-plane in each image. Image analysis was performed using Ominer™ software (OcellO BV). Cysts were segmented using detection of Hoechst-stained nuclei and Rhodamine-phalloidin-stained cellular f-actin. Cyst area was determined by calculating for the area in px of each object in every in-focus plain. This was averaged per well. (N represented is number of wells) Fraction of apoptotic nuclei as an indicator of toxicity was calculated as the amount of nuclei without actin signal relative to the total amount of nuclei, both as count-measurements. Statistics was done using KNIME Analytics Platform (Konstanz, Germany, http://www.knime.org/), graphs were prepared in GraphPad Prism 6 (GraphPad Software, La Jolla, Calif.)."}},
  "data": [
    {"smiles": "COC(=O)CCC(=O)SCCNC(=O)CCNC(=O)[C@H](OC(=O)CN)C(C)(C)CO", "note": "[Compound 1294, methyl 4-[(2-[3-[(2R)-2-[(2-aminoacetyl)oxy]-4-hydroxy-3,3-dimethylbutanamido]propanamido]ethyl)sulfanyl]-4-oxobutanoate]", "values": [
      {"measurement": "% decrease in IL-8", "setting": "[1]", "value": "≥10", "unit": "%"},
      {"measurement": "% increase in Proliferation (HUVEC)", "setting": "[1]", "value": "≥20", "unit": "%"}
    ]},
    {"smiles": "CC(C)C(=O)CC(=O)SCCNC(=O)CCNC(=O)[C@H](O)C(C)(C)CO", "note": "[Compound 1239, (R)—S-(2-(3-(2,4-dihydroxy-3,3-dimethylbutanamido)propanamido)ethyl) 4-methyl-3-oxopentanethioate]", "values": [
      {"measurement": "activation at 10 µM", "setting": "[2]", "value": "> 5", "unit": "%"}
    ]},
    {"smiles": "CC(O)C(C(=O)SCCNC(=O)CCNC(=O)[C@H](O)C(C)(C)CO)C(C)O", "note": "(stereo partly drawn) [Compound 1285, (2R)-2,4-dihydroxy-N-[2-[(2-[[3-hydroxy-2-(1-hydroxyethyl)butanoyl]sulfanyl]ethyl)carbamoyl]ethyl]-3,3-dimethylbutanamide]", "values": [
      {"measurement": "activation at 50 µM", "setting": "[2]", "value": "> 10", "unit": "%"}
    ]},
    {"smiles": "CC(C)(CO)[C@@H](OC(=O)CCC(=O)O)C(=O)NCCC(=O)NCCS", "note": "[Compound 1311, (R)-4-((4-hydroxy-1-((3-((2-mercaptoethyl)amino)-3-oxopropyl)amino)-3,3-dimethyl-1-oxobutan-2-yl)oxy)-4-oxobutanoic acid]", "values": [
      {"measurement": "activation at 10 µM", "setting": "[2]", "value": 5, "unit": "%"}
    ]},
    {"smiles": "C[C@H](CC(=O)SCCNC(=O)CCNC(=O)[C@H](O)C(C)(C)CO)OC(=O)CCC(=O)O", "note": "[Compound 1243, 4-{[(2R)-4-[(2-{3-[(2R)-2,4-dihydroxy-3,3-dimethylbutanamido]propanamido}ethyl)sulfanyl]-4-oxobutan-2-yl]oxy}-4-oxobutanoic acid]", "values": [
      {"measurement": "% prevention of forskolin-induced cyst swelling", "setting": "[3]; 50 uM", "value": "≥10", "unit": "%"}
    ]},
    {"smiles": "COC(=O)CC(SCCNC(=O)CCNC(=O)[C@H](O)C(C)(C)COC(C)=O)C(=O)OC", "note": "(stereo partly drawn) [Compound 149, 1,4-dimethyl 2-[(2-[3-[(2R)-4-(acetyloxy)-2-hydroxy-3,3-dimethylbutanamido]propanamido]ethyl)sulfanyl]butanedioate]", "values": [
      {"measurement": "% prevention of forskolin-induced cyst swelling", "setting": "[3]; 50 uM", "value": "≥10", "unit": "%"}
    ]},
    {"smiles": "COC(=O)C(C)C(=O)SCCNC(=O)CCNC(=O)[C@H](O)C(C)(C)CO", "note": "(some centres unmarked) [Compound 405]", "values": [
      {"measurement": "activation at 50 µM", "setting": "[2]", "value": "> 5", "unit": "%"}
    ]},
    {"smiles": "CCC(C)C(=O)CC(=O)SCCNC(=O)CCNC(=O)[C@H](O)C(C)(C)CO", "note": "(stereo partly drawn) [Compound 1240, S-(2-(3-((R)-2,4-dihydroxy-3,3-dimethylbutanamido)propanamido)ethyl) 4-methyl-3-oxohexanethioate]", "values": [
      {"measurement": "activation at 50 µM", "setting": "[2]", "value": "> 20", "unit": "%"}
    ]},
    {"smiles": "COC(=O)CCC(=O)SCCNC(=O)CCNC(=O)[C@H](OC(=O)CNC(C)=O)C(C)(C)CO", "note": "[Compound 1298, methyl 4-[(2-[3-[(2R)-2-[(2-acetamidoacetyl)oxy]-4-hydroxy-3,3-dimethylbutanamido]propanamido]ethyl)sulfanyl]-4-oxobutanoate]", "values": [
      {"measurement": "% decrease in IL-8", "setting": "[1]", "value": "≥10", "unit": "%"}
    ]},
    {"smiles": "CC(=O)OCC(C)(C)[C@@H](OC(C)=O)C(=O)NCCC(=O)NCCSC(C)=O", "note": "[Compound 1264, (1R)-3-(acetyloxy)-1-[(2-[[2-(acetylsulfanyl)ethyl]carbamoyl]ethyl)carbamoyl]-2,2-dimethylpropyl acetate]", "values": [
      {"measurement": "% increase in Proliferation (HUVEC)", "setting": "[1]", "value": "≥10", "unit": "%"}
    ]},
    {"smiles": "CC(C)(CO)[C@@H](O)C(=O)NCCC(=O)NCCSC(=O)[C@@H](N)Cc1ccc(O)c(O)c1", "note": "[Compound 371, (2R)—N-[2-[(2-[[(2S)-2-amino-3-(3,4-dihydroxyphenyl)propanoyl]sulfanyl]ethyl)carbamoyl]ethyl]-2,4-dihydroxy-3,3-dimethylbutanamide]", "values": [
      {"measurement": "% increase in Proliferation (HUVEC)", "setting": "[1]", "value": "≥10", "unit": "%"}
    ]},
    {"smiles": "COC(=O)CCC(=O)SCCNC(=O)CCNC(=O)[C@H](O)C(C)(C)CO", "note": "[Compound 4, Methyl (R)-4-((2-(3-(2,4-dihydroxy-3,3-dimethylbutanamido)propanamido)ethyl)thio)-4-oxobutanoate]", "values": [
      {"measurement": "activation at 50 µM", "setting": "[2]", "value": "> 5", "unit": "%"}
    ]},
    {"smiles": "CCCCCCC(=O)SCCNC(=O)CCNC(=O)[C@H](O)C(C)(C)CO", "note": "[Compound 372, (2R)—N-(2-[[2-(heptanoylsulfanyl)ethyl]carbamoyl]ethyl)-2,4-dihydroxy-3,3-dimethylbutanamide]", "values": [
      {"measurement": "% increase in Proliferation (HUVEC)", "setting": "[1]", "value": "≥20", "unit": "%"}
    ]},
    {"smiles": "CC(C)(CO)[C@@H](O)C(=O)NCCC(=O)NCCSC(=O)C1CCC(=O)N1", "note": "(stereo partly drawn) [Compound 1227, S-2-{3-[(R)-2,4-dihydroxy-3,3-dimethylbutyrylamino]propionylamino}ethyl 5-oxo-2-pyrrolidinecarbothioate]", "values": [
      {"measurement": "% prevention of forskolin-induced cyst swelling", "setting": "[3]; 10 uM", "value": "≥10", "unit": "%"}
    ]},
    {"smiles": "C/C=C/C(=O)SCCNC(=O)CCNC(=O)[C@H](O)C(C)(C)COP(=O)(O)O", "note": "[Compound 82, (R)—S-(2-(3-(2-hydroxy-3,3-dimethyl-4-(phosphonooxy)butanamido)propanamido)ethyl) (E)-but-2-enethioate]", "values": [
      {"measurement": "activation at 50 µM", "setting": "[2]", "value": "> 10", "unit": "%"}
    ]},
    {"smiles": "CC(C)(CO)[C@@H](O)C(=O)NCCC(=O)NCCSC(=O)CCCO", "note": "[Compound 1304, (2R)-2,4-dihydroxy-N-[2-([2-[(4-hydroxybutanoyl)sulfanyl]ethyl]carbamoyl)ethyl]-3,3-dimethylbutanamide]", "values": [
      {"measurement": "% prevention of forskolin-induced cyst swelling", "setting": "[3]; 10 uM", "value": "≥10", "unit": "%"}
    ]}
  ]
}
